Where two headings read alike, the source gives them in different places.
What was measured:
[1] = test system: 2′-deoxyguanosine (dG); settings: KBrO3 30 minutes; for dG: pure water ctrl 1.067; for 8OHdG/dG × 10^−3: pure water ctrl 3.542; for 8OHdG × 10^−3: pure water ctrl 3.779; for Relative initial magnification: pure water ctrl 13.47
[2] = test system: 2′-deoxyguanosine (dG); assay: 8OHdG produced from dG in presence of potassium bromate as active oxygen generator (Example 8); type: biochemical; settings: with KBrO3, ultrapure water 2.699
[3] = test system: 2′-deoxyguanosine (dG); assay: 8OHdG produced from added dG, standing at room temperature or UV irradiation (Examples 1-7); settings: for evaluation in words: oxidation induction or antioxidant ability toward dG: conclusions of Examples 2-7; for 8OHdG concentration, 90 Minutes' UV irradiation: ultrapure water 0.529; for concentration at which oxidation injury activity due to UV light is elevated (harmfulness increased): Example 1, 90 minutes UV;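 for all read-outs here: Cell-free test: dG in test solution, held at room temperature or exposed to 254 nm UV, then 8OHdG quantified by HPLC with electrochemical detection, compared against dG in ultrapure water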
Description: Separately, the amount of 8OHdG after an ultrapure water solution of dG is left to stand under the same conditions as above for a predetermined time is measured (this value is defined as B). If A is greater than B, the test substance is evaluated to have oxidation induction ability and conversely if A is smaller than B, the test substance is evaluated to have antioxidant ability. In either case, it is judged that the greater the difference is, the greater degree of oxidation induction ability or antioxidant capability the test substance has.
Then, 20 μl of 200 μg/ml dG (dissolved in ultrapure water) was added to each well and one of the plates was left to stand as it was at room temperature for 90 minutes and the other plate was irradiated with UV light (254 nm, 860 μW/cm^2) for 90 minutes in a UV light irradiation box. […] Subsequently, nucleosides in the both were quantified by use of the UV light absorption analyzer connected to the HPLC and the electrochemical detector.
Solutions of predetermined concentrations of vitamin C (VC), vitamin E (VE), catechin (Cate) and tannic acid (Tan) were prepared and 180 μl portions were injected into each well of two 99-well plastic plates. Then, 20 μl of 200 μg/ml dG (dissolved in ultrapure water) was added to each well and one of the plates was left to stand as it was at room temperature for 90 minutes and the other plate was irradiated with UV light (254 nm, 860 μW/cm^2) for 90 minutes in a UV light irradiation box.
Then, 20 μl of 200 μg/ml dG (dissolved in ultrapure water) was added to each well and one of the plates was left to stand as it was at room temperature for 90 minutes and another plate was left to stand similarly at room temperature for 24 hours. The remaining three plates were irradiated with UV light (254 nm, 860 μW/cm^2) for 60 minutes, 90 minutes and 120 minutes, respectively, in a UV light irradiation box.
Solutions of predetermined concentrations of glucose (Glu), raffinose (Raffi) and sucrose (Suc) were prepared and 180 μl portions thereof were injected into each well of four 99-well plastic plates. Then, 20 μl of 200 μg/ml dG (dissolved in ultrapure water) was added to each well and one of the plates was left to stand as it was at room temperature for 90 minutes. The remaining three plates were irradiated with UV light (254 nm, 860 μW/cm^2) for 60 minutes, 90 minutes and 120 minutes, respectively, in a UV light irradiation box.
Then, 20 μl of 200 μg/ml dG (dissolved in ultrapure water) was added to each well and one of the plates was left to stand as it was at room temperature for 90 minutes and the other plate was irradiated with UV light (254 nm, 860 μW/cm^2) for 90 minutes in a UV light irradiation box.
Solutions of various concentrations of uric acid (dissolving fluid: distilled water+0.025% FBS) were prepared and 180 μl portions thereof were injected into each well of two 99-well plastic plates. Then, 20 μl of 200 μg/ml dG (dissolved in ultrapure water) was added to each well and one of the plates was left to stand as it was at room temperature for 90 minutes and the other plate was irradiated with UV light (254 nm, 860 μW/cm^2) for 90 minutes in a UV light irradiation box.

[4] = cited from earlier work
[5] = test system: 2′-deoxyguanosine (dG); assay: 8OHdG produced from dG with test substance and coexisting bisphenol A, standing or UV (Example 9); type: biochemical; settings: for 8OHdG concentration, 90 Minutes' standing: ultrapure water 0.21; for 8OHdG concentration, 90 Minutes' UV irradiation: ultrapure water 0.64
Description: 170 μl portions of ultrapure water and predetermined concentrations of vitamin C (VC), vitamin E (VE), and glucose (Glu) as test substance were added to each well of two […] plastic plates and, as additional solution, 20 μl of ultrapure water or predetermined concentration of bisphenol A (BPA) were injected into each well.

[6] = 5%, Table 3, ultrapure water 0.382
[7] = 20%, Table 3, ultrapure water 0.382
[8] = 0.005 ppm, Table 1, ultrapure water 0.267
[9] = 0.5 ppm, Table 1, ultrapure water 0.267
[10] = 5 ppm, Table 1, ultrapure water 0.267
[11] = BPA 0.5 ppm added to ultrapure water
[12] = BPA 5 ppm added to ultrapure water
[13] = BPA 50 ppm added to ultrapure water

## O=C([O-])CN(CCN(CC(=O)[O-])CC(=O)[O-])CC(=O)[O-].[Na+].[Na+].[Na+].[Na+] [EDTA, sodium ethylenediaminetetraacetate]
[1]; 1 mM
  dG: 0.997 VS
  8OHdG/dG × 10^−3: 1.101 × 10^−3
  8OHdG × 10^−3: 1.098 mVs
  Relative initial magnification: 4.19 times
[2]; 1 mM
  8OHdG concentration, 30 Minutes' standing: 0.784 ng/mL

## CO [Meth, methanol]
[1]; 1%
  dG: 1.04 VS
  8OHdG/dG × 10^−3: 2.771 × 10^−3
[1]; 5%
  dG: 1.054 VS
  8OHdG/dG × 10^−3: 2.238 × 10^−3
  8OHdG × 10^−3: 2.359 mVs
[2]; 1%
  8OHdG concentration, 30 Minutes' standing: 2.059 ng/mL
[2]; 2.5%
  8OHdG concentration, 30 Minutes' standing: 1.685 ng/mL
[3]; 5%, Table 3, ultrapure water 0.231
  8OHdG concentration, UV irradiation 60 minutes: 0.181 ng/mL
[3]; [6]
  8OHdG concentration, Standing 24 hours: 0.336 ng/mL
  8OHdG concentration, UV irradiation 90 minutes: 0.209 ng/mL
[3]; 5%, Table 3, ultrapure water 0.645
  8OHdG concentration, UV irradiation 120 minutes: 0.332 ng/mL
[3]; 20%, Table 3, ultrapure water 0.231
  8OHdG concentration, UV irradiation 60 minutes: 0.324 ng/mL
[3]; [7]
  8OHdG concentration, Standing 24 hours: 0.274 ng/mL
  8OHdG concentration, UV irradiation 90 minutes: 0.395 ng/mL
[3]; 20%, Table 3, ultrapure water 0.645
  8OHdG concentration, UV irradiation 120 minutes: 0.518 ng/mL
[3]
  evaluation in words: oxidation induction or antioxidant ability toward dG: potent antioxidant ability

## OCC(O)CO [Gly, glycerol]
[1]; 10%
  dG: 1.044 VS
  8OHdG/dG × 10^−3: 1.506 × 10^−3
  8OHdG × 10^−3: 1.572 mVs
[2]; 10%
  8OHdG concentration, 30 Minutes' standing: 1.123 ng/mL

## CC(C)(c1ccc(O)cc1)c1ccc(O)cc1 [BPA, bisphenol A]
[4]; common in every country
  Acceptable uptake amount: 0.05 mg/kg/day
[3]; 0.0005 ppm, Table 1
  8OHdG concentration, 90 Minutes' UV irradiation: 0.689 ng/mL
[3]; [8]
  8OHdG concentration, 90 Minutes' standing: 0.315 ng/mL
[3]; 0.005 ppm, Table 1
  8OHdG concentration, 90 Minutes' UV irradiation: 0.794 ng/mL
[3]; 0.05 ppm, Table 1
  8OHdG concentration, 90 Minutes' UV irradiation: 0.614 ng/mL
[3]; [9]
  8OHdG concentration, 90 Minutes' standing: 0.231 ng/mL
[3]; 0.5 ppm, Table 1
  8OHdG concentration, 90 Minutes' UV irradiation: 1.736 ng/mL
[3]; [10]
  8OHdG concentration, 90 Minutes' standing: 0.192 ng/mL
[3]; 5 ppm, Table 1
  8OHdG concentration, 90 Minutes' UV irradiation: 7.142 ng/mL
[3]
  concentration at which oxidation injury activity due to UV light is elevated (harmfulness increased): ≥ 0.5 ppm
[5]; [11]
  8OHdG concentration, 90 Minutes' standing: 0.19 ng/mL
  8OHdG concentration, 90 Minutes' UV irradiation: 2.09 ng/mL
[5]; [12]
  8OHdG concentration, 90 Minutes' standing: 0.31 ng/mL
  8OHdG concentration, 90 Minutes' UV irradiation: 6.19 ng/mL
[5]; [13]
  8OHdG concentration, 90 Minutes' standing: 0.22 ng/mL
  8OHdG concentration, 90 Minutes' UV irradiation: 11.58 ng/mL
[5]; Example 9
  effect on 8OHdG with BPA and UV light irradiation: increases depending on concentration

## OC[C@H]1O[C@H](OC[C@H]2O[C@H](O[C@]3(CO)O[C@H](CO)[C@@H](O)[C@@H]3O)[C@H](O)[C@@H](O)[C@@H]2O)[C@H](O)[C@@H](O)[C@H]1O [Raffi, raffinose]
[1]; 1 mg/ml
  dG: 0.926 VS
  8OHdG/dG × 10^−3: 2.513 × 10^−3
  8OHdG × 10^−3: 2.327 mVs
  Relative initial magnification: 9.55 times
[1]; 10 mg/ml
  dG: 1.045 VS
  8OHdG/dG × 10^−3: 3.137 × 10^−3
  8OHdG × 10^−3: 3.278 mVs
  Relative initial magnification: 11.93 times
[3]; 0.1 μg/ml, Table 4, ultrapure water 0.195
  8OHdG concentration, 90 Minutes' standing: 0.205 ng/mL
[3]; 0.1 μg/ml, Table 4, ultrapure water 0.392
  8OHdG concentration, UV irradiation 60 minutes: 0.375 ng/mL
[3]; 0.1 μg/ml, Table 4, ultrapure water 0.901
  8OHdG concentration, UV irradiation 90 minutes: 0.689 ng/mL
[3]; 0.1 μg/ml, Table 4, ultrapure water 1.183
  8OHdG concentration, UV irradiation 120 minutes: 1.127 ng/mL
[3]; 1 μg/ml, Table 4, ultrapure water 0.195
  8OHdG concentration, 90 Minutes' standing: 0.185 ng/mL
[3]; 1 μg/ml, Table 4, ultrapure water 0.392
  8OHdG concentration, UV irradiation 60 minutes: 0.304 ng/mL
[3]; 1 μg/ml, Table 4, ultrapure water 0.901
  8OHdG concentration, UV irradiation 90 minutes: 0.854 ng/mL
[3]; 1 μg/ml, Table 4, ultrapure water 1.183
  8OHdG concentration, UV irradiation 120 minutes: 1.049 ng/mL
[3]; 10 μg/ml, Table 4, ultrapure water 0.195
  8OHdG concentration, 90 Minutes' standing: 0.405 ng/mL
[3]; 10 μg/ml, Table 4, ultrapure water 0.392
  8OHdG concentration, UV irradiation 60 minutes: 0.281 ng/mL
[3]; 10 μg/ml, Table 4, ultrapure water 0.901
  8OHdG concentration, UV irradiation 90 minutes: 0.626 ng/mL
[3]; 10 μg/ml, Table 4, ultrapure water 1.183
  8OHdG concentration, UV irradiation 120 minutes: 1.314 ng/mL
[3]; 100 μg/ml, Table 4, ultrapure water 0.195
  8OHdG concentration, 90 Minutes' standing: 0.455 ng/mL
[3]; 100 μg/ml, Table 4, ultrapure water 0.392
  8OHdG concentration, UV irradiation 60 minutes: 0.158 ng/mL
[3]; 100 μg/ml, Table 4, ultrapure water 0.901
  8OHdG concentration, UV irradiation 90 minutes: 0.370 ng/mL
[3]; 100 μg/ml, Table 4, ultrapure water 1.183
  8OHdG concentration, UV irradiation 120 minutes: 0.503 ng/mL
[3]; 1 mg/ml, Table 4, ultrapure water 0.195
  8OHdG concentration, 90 Minutes' standing: 0.340 ng/mL
[3]; 1 mg/ml, Table 4, ultrapure water 0.392
  8OHdG concentration, UV irradiation 60 minutes: 0.115 ng/mL
[3]; 1 mg/ml, Table 4, ultrapure water 0.901
  8OHdG concentration, UV irradiation 90 minutes: 0.176 ng/mL
[3]; 1 mg/ml, Table 4, ultrapure water 1.183
  8OHdG concentration, UV irradiation 120 minutes: 0.240 ng/mL
[3]; Example 4
  concentration at which antioxidant ability is effective: ≥ 10 µg/mL
[3]
  evaluation in words: oxidation induction or antioxidant ability toward dG: Glu>Raffi≈Suc

## Oc1c(Cl)c(Cl)c(Cl)c(Cl)c1Cl [PCP, pentachlorophenol]
[4]; reported
  safety concentration: 5 mg/kg
[3]; 0.0005 ppm, Table 1, ultrapure water 0.267
  8OHdG concentration, 90 Minutes' standing: 0.260 ng/mL
[3]; 0.0005 ppm, Table 1
  8OHdG concentration, 90 Minutes' UV irradiation: 0.585 ng/mL
[3]; [8]
  8OHdG concentration, 90 Minutes' standing: 0.236 ng/mL
[3]; 0.005 ppm, Table 1
  8OHdG concentration, 90 Minutes' UV irradiation: 0.451 ng/mL
[3]; 0.05 ppm, Table 1, ultrapure water 0.267
  8OHdG concentration, 90 Minutes' standing: 0.285 ng/mL
[3]; 0.05 ppm, Table 1
  8OHdG concentration, 90 Minutes' UV irradiation: 0.431 ng/mL
[3]; [9]
  8OHdG concentration, 90 Minutes' standing: 0.282 ng/mL
[3]; 0.5 ppm, Table 1
  8OHdG concentration, 90 Minutes' UV irradiation: 0.396 ng/mL
[3]; [10]
  8OHdG concentration, 90 Minutes' standing: 0.340 ng/mL
[3]; 5 ppm, Table 1
  8OHdG concentration, 90 Minutes' UV irradiation: 5.730 ng/mL
[3]
  concentration at which oxidation injury activity due to UV light is elevated (harmfulness increased): 5 ppm

— US7531312B2, “Simplified biological evaluation method of natural and artificial chemicals by using DNA injury index and apparatus therefor” (TAS Project Co., Ltd., priority 2000, dated 2009)
